Experiment [1] deals with erythroid progenitor cells (EPCs). Nature of the experiment: Fetal hemoglobin (HbF) ELISA in day 7 erythroid progenitor cells.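 Note: for fetal hemoglobin induction normalized to vehicle-treated cells.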 In kind it is cell-based, human. The note with it: Homo sapiens, Erythroid progenitor cell, HbF ELISA, day 7 EPCs, 5 days; read-out: EPC ELISA (pEC50 category) (converted). Summed up:
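HbF induction was read by anti-HbF sandwich ELISA (HRP/TMB, OD450) on lysates and normalized to vehicle-treated cells. Cells were day 7 erythroid progenitors derived from human bone marrow CD34+ cells, seeded at 1,000/well with 3 U/mL rhEPO. Compound was given for 5 days at 37 °C at final concentrations […].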
In general terms: ELISA stands for enzyme-linked immunosorbent assay.

Experiment [2] has as its target DNMT1 (Homo sapiens, UniProt P26358). Nature of the experiment: DNMT1 biochemical activity, breaklight assay and/or SPA assay.
The mark [3] stands for this setting: binned activity in either the breaklight or the SPA assay, read-out: DNMT1 BioChemical (pIC50 category) (converted).
Setting [4] is: binned activity in either the breaklight or the SPA assay.
The mark [5] stands for this setting: breaklight assay and/or SPA assay, repeated experimental runs, read-out: average pIC50 against DNMT1 (converted).

Values joined by “and” are separate entries in the source; they are usually repeats but may differ in a detail not shown here. Identical values can stand only once. Counter-ions that a name gives are not always drawn. Like-named read-outs stand apart in the source and are kept apart here.

DNMT1, sequence (P26358 whole entry, looked up): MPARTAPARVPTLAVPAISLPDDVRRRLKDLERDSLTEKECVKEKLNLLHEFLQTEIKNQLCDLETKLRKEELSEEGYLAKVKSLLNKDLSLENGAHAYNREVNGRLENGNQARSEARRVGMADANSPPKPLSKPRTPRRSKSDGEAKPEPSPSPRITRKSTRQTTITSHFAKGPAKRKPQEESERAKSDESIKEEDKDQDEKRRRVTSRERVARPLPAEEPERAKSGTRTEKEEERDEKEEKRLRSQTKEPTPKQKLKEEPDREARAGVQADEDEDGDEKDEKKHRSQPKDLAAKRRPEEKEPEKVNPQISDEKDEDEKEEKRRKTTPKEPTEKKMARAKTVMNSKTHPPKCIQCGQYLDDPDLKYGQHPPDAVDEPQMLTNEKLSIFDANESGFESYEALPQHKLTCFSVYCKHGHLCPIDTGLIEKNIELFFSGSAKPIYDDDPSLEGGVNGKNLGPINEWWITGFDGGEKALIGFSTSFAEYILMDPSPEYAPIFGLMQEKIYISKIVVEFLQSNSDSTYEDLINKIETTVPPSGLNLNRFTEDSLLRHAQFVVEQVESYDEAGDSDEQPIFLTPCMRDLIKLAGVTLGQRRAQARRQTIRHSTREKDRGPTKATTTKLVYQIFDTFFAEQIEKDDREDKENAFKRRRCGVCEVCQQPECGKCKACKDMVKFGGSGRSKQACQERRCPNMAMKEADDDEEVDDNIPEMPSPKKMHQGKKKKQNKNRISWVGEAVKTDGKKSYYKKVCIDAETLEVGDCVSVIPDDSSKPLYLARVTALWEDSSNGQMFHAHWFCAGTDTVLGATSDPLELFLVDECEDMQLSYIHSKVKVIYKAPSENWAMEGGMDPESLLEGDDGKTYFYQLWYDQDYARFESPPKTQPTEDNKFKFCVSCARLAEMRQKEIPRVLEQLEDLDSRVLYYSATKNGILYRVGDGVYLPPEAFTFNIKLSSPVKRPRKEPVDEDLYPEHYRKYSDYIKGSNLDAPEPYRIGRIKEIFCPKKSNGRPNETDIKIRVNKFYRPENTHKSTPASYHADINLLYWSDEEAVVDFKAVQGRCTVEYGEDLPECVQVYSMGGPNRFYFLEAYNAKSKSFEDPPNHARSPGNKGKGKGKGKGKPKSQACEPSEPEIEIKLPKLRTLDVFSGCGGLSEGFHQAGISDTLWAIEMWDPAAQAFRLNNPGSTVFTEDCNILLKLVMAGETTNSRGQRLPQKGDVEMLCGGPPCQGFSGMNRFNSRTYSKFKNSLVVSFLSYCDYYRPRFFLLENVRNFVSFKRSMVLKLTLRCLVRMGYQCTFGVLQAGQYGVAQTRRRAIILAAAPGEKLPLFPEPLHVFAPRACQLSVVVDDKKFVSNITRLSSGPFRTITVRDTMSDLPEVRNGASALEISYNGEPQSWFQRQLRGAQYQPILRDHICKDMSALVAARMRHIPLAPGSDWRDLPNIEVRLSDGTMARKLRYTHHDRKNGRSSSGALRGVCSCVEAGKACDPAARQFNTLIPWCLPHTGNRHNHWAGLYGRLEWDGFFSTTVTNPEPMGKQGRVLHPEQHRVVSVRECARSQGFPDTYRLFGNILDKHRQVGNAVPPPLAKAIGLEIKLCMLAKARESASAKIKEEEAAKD

`CCc1c(C#N)c(OCCN(C)C)nc(SC(C(N)=O)c2ccccc2)c1C#N` (centres unmarked) [Example 174, 2-((3,5-Dicyano-6-(2-(dimethylamino)ethoxy)-4-ethylpyridin-2-yl)thio)-2-phenylacetamide]: the EC50 in experiment [1] was 0.316 to 1 µM. In experiment [2] (setting [3]), the IC50 was 0.316 to 1 µM.
Regarding `CCc1c(C#N)c(SC(C(N)=O)c2ccccc2)nc(N2CCC(OP(=O)(O)O)CC2)c1C#N` (centres unmarked) [Example 155, 1-(6-((2-Amino-2-oxo-1-phenylethyl)thio)-3,5-dicyano-4-ethylpyridin-2-yl)piperidin-4-yl dihydrogen phosphate], in experiment [1], the EC50 was more than 31.6 µM. For the same compound, the IC50 in experiment [2] (setting [3]) was 1 to 31.6 µM.
For `CCc1c(C#N)c(SCc2ccc(N(C)S(C)(=O)=O)cc2)nc(N(C)CCNC2(C)CC2)c1C#N` [Example 481, N-(4-(((3,5-dicyano-4-ethyl-6-(methyl(2-((1-methylcyclopropyl)amino)ethyl)amino)pyridin-2-yl)thio)methyl)phenyl)-N-methylmethanesulfonamide], the EC50 in experiment [1] was less than 0.316 µM. The “DNMT1 BioChemical (pIC50 category)” value in experiment [2] (setting [4]) is listed as “D (Category D: ≥6.5)”.
`CCc1c(C#N)c(SC(C(N)=O)c2ccccc2)nc(N2CC3CC2CN3C)c1C#N` (centres unmarked) [Example 303, 2-((3,5-Dicyano-4-ethyl-6-(5-methyl-2,5-diazabicyclo[2.2.1]heptan-2-yl)pyridin-2-yl)thio)-2-phenylacetamide]: the EC50 in experiment [1] was 0.316 to 1 µM. Besides, the IC50 in experiment [2] (setting [3]) was 0.316 to 1 µM; in experiment [2] (setting [5]), 0.316 to 1 µM and 0.631 µM.
In the case of `CCc1c(C#N)c(SC(C(N)=O)c2ccccc2)nc(N2CCC(OP(=O)(O)O)C2)c1C#N` (centres unmarked) [Example 150, 1-(6-((2-Amino-2-oxo-1-phenylethyl)thio)-3,5-dicyano-4-ethylpyridin-2-yl)pyrrolidin-3-yl dihydrogen phosphate], in experiment [1], the EC50 was more than 31.6 µM. Besides, the IC50 in experiment [2] (setting [3]) was 1 to 31.6 µM.
The corresponding values for `CCc1c(C#N)c(SC(C(N)=O)c2cccc(C(F)(F)F)c2)nc(N2CCCN(C)CC2)c1C#N` (centres unmarked) [Example 223, 2-((3,5-Dicyano-4-ethyl-6-(4-methyl-1,4-diazepan-1-yl)pyridin-2-yl)thio)-2-(3-(trifluoromethyl)phenyl)acetamide] are 1 to 31.6 µM and 0.316 to 1 µM.
As for `CCc1c(C#N)c(S[C@H](C(N)=O)c2ccc(F)cc2)nc(N2CCC(N(C)C)CC2)c1C#N` (single isomer, unassigned) [Example 465, 2-((3,5-dicyano-6-(4-(dimethylamino)piperidin-1-yl)-4-ethylpyridin-2-yl)thio)-2-(4-fluorophenyl)acetamide, Formic acid salt], the EC50 in experiment [1] was less than 0.316 µM. Besides, the “DNMT1 BioChemical (pIC50 category)” value in experiment [2] (setting [4]) is reported as “D (Category D: ≥6.5)”.
With `CCc1c(C#N)c(SCc2ccc(C#N)cc2)nc(N2CCCN(C)CC2)c1C#N` [Example 93, 2-((4-Cyanobenzyl)thio)-4-ethyl-6-(4-methyl-1,4-diazepan-1-yl)pyridine-3,5-dicarbonitrile], in experiment [1], the EC50 is more than 31.6 µM. Besides, the IC50 in experiment [2] (setting [3]) is 0.316 to 1 µM.
For `CCc1c(C#N)c(SC(C(N)=O)c2ccccc2)nc(N(C)CC(=O)N2CC(O)C2)c1C#N` (centres unmarked) [Example 633, 2-((3,5-dicyano-4-ethyl-6-((2-(3-hydroxyazetidin-1-yl)-2-oxoethyl)(methyl)amino)pyridin-2-yl)thio)-2-phenylacetamide], the EC50 in experiment [1] is less than 0.316 µM. In experiment [2] (setting [4]), the “DNMT1 BioChemical (pIC50 category)” value is given as “D (Category D: ≥6.5)”.
Turning to `CCc1c(C#N)c(SC(C(N)=O)c2ccccc2)nc(N2CCN(C3CCNCC3)CC2)c1C#N` (centres unmarked) [Example 13, 2-({3,5-dicyano-4-ethyl-6-[4-(piperidin-4-yl)piperazin-1-yl]pyridin-2-yl}sulfanyl)-2-phenylacetamide], in experiment [1], the EC50 was 0.316 to 1 µM. The IC50 in experiment [2] (setting [3]) was 0.316 to 1 µM.
For `CCc1c(Cl)c(SC(C(N)=O)c2ccccc2)nc(N2CCCN(CCO)CC2)c1Cl` (centres unmarked) [Example 203, 2-((3,5-Dichloro-4-ethyl-6-(4-(2-hydroxyethyl)-1,4-diazepan-1-yl)pyridin-2-yl)thio)-2-phenylacetamide], in experiment [1], the EC50 was more than 31.6 µM. In experiment [2] (setting [3]), the IC50 is 0.316 to 1 µM.
For `CCc1c(C#N)c(SC(C(N)=O)c2ccccc2)nc(N2CCC[C@@H](CN)C2)c1C#N` (stereo partly drawn) [Example 576, 2-((6-((S)-3-(aminomethyl)piperidin-1-yl)-3,5-dicyano-4-ethylpyridin-2-yl)thio)-2-phenylacetamide], in that order: less than 0.316 µM and less than 0.316 µM.
Consider `CCc1c(C#N)c(SCc2ccc(OCCN(C)C)cc2)nc(N2CCCN(C)CC2)c1C#N` [Example 377, 2-(4-(2-(Dimethylamino)ethoxy)benzylthio)-4-ethyl-6-(4-methyl-1,4-diazepan-1-yl)pyridine-3,5-dicarbonitrile], for which the EC50 in experiment [1] was more than 31.6 µM. Moreover, the IC50 in experiment [2] (setting [3]) is 1 to 31.6 µM; in experiment [2] (setting [5]), not below 1 µM.
With `CCc1c(C#N)c(SCc2cnn(CCO)c2)nc(N2CCC(N)CC2)c1C#N` [Example 363], the EC50 in experiment [1] was 1 to 31.6 µM. Moreover, the IC50 in experiment [2] (setting [3]) is 0.316 to 1 µM.
For the compound `CCc1c(C#N)c(SC(C(N)=O)c2ccccc2)nc(N(C)CCN2CCC(O)(CN)CC2)c1C#N` (centres unmarked) [Example 170, 2-((6-((2-(4-(Aminomethyl)-4-hydroxypiperidin-1-yl)ethyl)(methyl)amino)-3,5-dicyano-4-ethylpyridin-2-yl)thio)-2-phenylacetamide], the EC50 in experiment [1] is 1 to 31.6 µM. Also, the “DNMT1 BioChemical (pIC50 category)” value in experiment [2] (setting [4]) is recorded as “D (Category D: ≥6.5)”.
For `CCc1c(C#N)c(S[C@@H](C(N)=O)c2ccccc2)nc(N2CC[C@H](N)[C@@H](F)C2)c1C#N` [Example 519, (R)-2-((6-((3S,4S)-4-amino-3-fluoropiperidin-1-yl)-3,5-dicyano-4-ethylpyridin-2-yl)thio)-2-phenylacetamide, Trifluoroacetic acid salt], in that order: less than 0.316 µM and “D (Category D: ≥6.5)”.
For `CCc1c(C#N)c(SC(C(N)=O)c2ccccc2)nc(N(C)CC(=O)N(CCO)CCO)c1C#N` (centres unmarked) [Example 668, 2-((6-((2-amino-2-oxo-1-phenylethyl)thio)-3,5-dicyano-4-ethylpyridin-2-yl)(methyl)amino)-N,N-bis(2-hydroxyethyl)acetamide], in that order: 0.316 to 1 µM and “D (Category D: ≥6.5)”.
Turning to `CCc1c(C#N)c(SC(C(N)=O)c2cccnc2)nc(N2CC[C@H](O)C2)c1C#N` (stereo partly drawn) [Example 181, 2-((3,5-Dicyano-4-ethyl-6-((S)-3-hydroxypyrrolidin-1-yl)pyridin-2-yl)thio)-2-(pyridin-3-yl)acetamide], in experiment [1], the EC50 is 1 to 31.6 µM. In addition, the IC50 in experiment [2] (setting [3]) is 0.316 to 1 µM.
For `N#Cc1c(SC(C(N)=O)c2ccccc2)nc(N2CCC(NCC(N)=O)CC2)c(C#N)c1C1CC1` (centres unmarked) [Example 667, 2-((6-(4-((2-amino-2-oxoethyl)amino)piperidin-1-yl)-3,5-dicyano-4-cyclopropylpyridin-2-yl)thio)-2-phenylacetamide], in that order: 1 to 31.6 µM and less than 0.316 µM.
`CCc1c(C#N)c(SCc2ccc(N(C)S(C)(=O)=O)cc2)nc(N2CCC(NC(=O)[C@@H](C)N)CC2)c1C#N` [Example 584, (R)-2-amino-N-(1-(3,5-dicyano-4-ethyl-6-((4-(N-methylmethylsulfonamido)benzyl)thio)pyridin-2-yl)piperidin-4-yl)propanamide]: the EC50 in experiment [1] was less than 0.316 µM. Further, the “DNMT1 BioChemical (pIC50 category)” value in experiment [2] (setting [4]) is on record as “D (Category D: ≥6.5)”.
The corresponding values for `CCc1c(C#N)c(SC(C(N)=O)c2ccc(F)cc2)nc(N2CCC(N3CC(OC)C3)CC2)c1C#N` (centres unmarked) [Example 698, 2-((3,5-dicyano-4-ethyl-6-(4-(3-methoxyazetidin-1-yl)piperidin-1-yl)pyridin-2-yl)thio)-2-(4-fluorophenyl)acetamide] are less than 0.316 µM and “D (Category D: ≥6.5)”.
The corresponding values for `CCc1c(C#N)c(SC(C(N)=O)c2ccccc2)nc(N2CCOC(CN(CC)CC)C2)c1C#N` (centres unmarked) [Example 559, 2-((3,5-dicyano-6-(2-((diethylamino)methyl)morpholino)-4-ethylpyridin-2-yl)thio)-2-phenylacetamide] are less than 0.316 µM and “D (Category D: ≥6.5)”.
The corresponding values for `CCc1c(C#N)c(SC(C(N)=O)c2ccccc2)nc(N2CCC(N3CCC[C@@H]3CO)CC2)c1C#N` (single isomer, unassigned) [Example 464] are less than 0.316 µM and “D (Category D: ≥6.5)”.
On to `CCc1c(C#N)c(SC(C(N)=O)c2ccc(F)cc2)nc(N2CCC(N)CC2)c1C#N` (centres unmarked) [Example 522, 2-((6-(4-aminopiperidin-1-yl)-3,5-dicyano-4-ethylpyridin-2-yl)thio)-2-(4-fluorophenyl)acetamide hydrochloride], for which the EC50 in experiment [1] is less than 0.316 µM. In addition, the “DNMT1 BioChemical (pIC50 category)” value in experiment [2] (setting [4]) is given as “D (Category D: ≥6.5)”.
For `CCc1c(C#N)c(SC(C(N)=O)c2ccccc2)nc(N2CCC[C@@H](NC)C2)c1C#N` (stereo partly drawn) [Example 636, 2-((3,5-dicyano-4-ethyl-6-((R)-3-(methylamino)piperidin-1-yl)pyridin-2-yl)thio)-2-phenylacetamide], in that order: less than 0.316 µM and “D (Category D: ≥6.5)”.
For `CCc1c(C#N)c(S[C@@H](C(N)=O)c2ccccc2)nc(N(C)CCCO)c1C#N` [Example 695, (R)-2-((3,5-dicyano-4-ethyl-6-((3-hydroxypropyl)(methyl)amino)pyridin-2-yl)thio)-2-phenylacetamide], in that order: 1 to 31.6 µM and “D (Category D: ≥6.5)”.
For `CCc1c(C#N)c(SC(C(N)=O)c2ccccc2)nc(N(C)CCN(C)C)c1C#N` (centres unmarked) [Example 493, 2-((3,5-dicyano-6-((2-(dimethylamino)ethyl)(methyl)amino)-4-ethylpyridin-2-yl)thio)-2-phenylacetamide], in that order: 0.316 to 1 µM and “D (Category D: ≥6.5)”.

Source of the values: US10975056B2 (GlaxoSmithKline Intellectual Property Development Limited, priority 2016, dated 2021).
